Reference: patent US20100285964A1, “SALTS OF 2-IODO-N-[(4-METHOXY-6-METHYL-1,3, 5-TRIAZINE-2-YL) CARBAMOYL] BENZENESULFONAMIDE, METHOD FOR THE PRODUCTION THEREOF AND USE THEREOF AS HERBICIDES AND PLANT GROWTH REGULATORS” (BayerCropScience AG, priority 2007, published 2010)

Assays:
Type in all cases: in vivo
[1] = tested on: Panicum minor; test: Post-emergence herbicidal action, field trial (Table A-1); conditions: 20 g of ai/ha (acid equivalent for salts), 3-5-leaf stage, 25 days after application, 0%=no control, 100%=complete control
Excerpt: (§1) In a direct comparison, under field trial conditions (time of application 3-5-leaf stage of the weeds examined), the activities of the weed control of the free acid “2-iodo-N-[(4-methoxy-6-methyl-1,3,5-triazin-2-yl)carbamoyl]benzenesulfonamide” known from DE 27 15 786 were compared to individual salts according to the invention of 2-iodo-N-[(4-methoxy-6-methyl-1,3,5-triazin-2-yl)carbamoyl]benzenesulfonamide (compound I-3 (potassium salt of 2-iodo-N-[(4-methoxy-6-methyl-1,3,5-triazin-2-yl)carbamoyl]benzenesulfonamide) and 1-4 (magnesium salt of 2-iodo-N-[(4-methoxy-6-methyl-1,3,5-triazin-2-yl)carbamoyl]benzenesulfonamide)), evaluation being carried out 25 days after application. With respect to the activity, both a representative of a monocotyledonous weed (Panicum minor) and a representative of a dicotyledonous weed (Solanum nigrum) were scored according to the scheme below:
(§2) 0%=no control 100%=complete control

[2] = tested on: Solanum nigrum; test: as above; conditions: 20 g of ai/ha (acid equivalent for salts), 3-5-leaf stage, 25 days after application, 0%=no control, 100%=complete control
Excerpt: as §1, §2

[3] = tested on: Amaranthus retroflexus, Lolium multiflorum, Abuthilon theophrasti, Matricaria inodora, Ipomoea purpurea, Panicum minor, Stellaria media, Solanum nigrum …; test: Post-emergence herbicidal action, greenhouse; conditions: post-emergence method, application rate of 0.08 kg or less of active substance per hectare, scored after about 10 to 28 days
Procedure: Seeds or rhizome pieces of monocotyledonous and dicotyledonous weeds were placed in sandy loam in plastic pots, covered with soil and cultivated in a greenhouse under good growth conditions. Three weeks after sowing, the test plants were treated at the three-leaf stage. The compounds according to the invention, formulated as wettable powders or as emulsion concentrates, were sprayed onto the green parts of the plants at various dosages using a water application rate of from 100 to 800 l/ha (converted).

[4] = tested on: Matricaria inodora, Papaver rhoeas, Stellaria media and Viola tricolor; test: Pre-emergence herbicidal action, greenhouse; conditions: pre-emergence method, application rate of 0.08 kg or less of active substance per hectare, scored after 3 to 4 weeks
Excerpt: Seeds or rhizome pieces of mono- and dicotyledonous weeds were placed in sandy loam in cardboard pots and covered with soil. The compounds according to the invention, formulated in the form of wettable powders or emulsion concentrates, were then applied to the surface of the covering soil in the form of aqueous suspensions or emulsions at an application rate of 100 to 800 l of water/ha (converted), at various dosages.
After the treatment, the pots were placed in a greenhouse and kept under good growth conditions for the weeds. The visual scoring of the damage to the plants or the emergence damage was carried out after the emergence of the test plants after a test period of 3 to 4 weeks, by comparison with untreated controls. As shown by the results, the compounds according to the invention have good herbicidal pre-emergence activity against a broad spectrum of weed grasses and broad-leaved weeds.

[5] = tested on: Pennisetum glauca; test: Post-emergence herbicidal action, outdoor trial (Table A-2); conditions: 30 g of ai/ha (acid equivalent for salt), 2-4-leaf stage, 28 days after application
Excerpt: (§3) In a further direct comparison, under outdoor trial conditions (time of application 2-4-leaf stage of the weeds examined), the activities of the weed control of the free acid “2-iodo-N-[(4-methoxy-6-methyl-1,3,5-triazin-2-yl)carbamoyl]benzene-sulfonamide” known from DE 27 15 786 were compared to the inventive Na^+ salt of 2-iodo-N-[(4-methoxy-6-methyl-1,3,5-triazin-2-yl)carbamoyl]benzenesulfonamide (compounds I-2 according to the invention) at various application rates, evaluation being carried out 28 days after application. With respect to the activity, the weeds Chenopodium album, Fagopyran repens and Pennisetum glauca were scored according to the scheme below:
as §2

[6] = tested on: Fagopyran repens; test: as above; conditions: 2-4-leaf stage, 28 days after application
Excerpt: as §3, §2

[7] = tested on: Chenopodium album; test: as above; conditions: 2-4-leaf stage, 28 days after application
Excerpt: as §3, §2

[8] = tested on: oilseed rape (Brassica napus); test: Replanting behavior, crop sown in treated soil; conditions: scored after four weeks
Procedure: (§4) In further tests, various dosages of the test substances were worked into the soil. Subsequently, various crop plants were sown in plastic pots filled with the treated soil and cultivated in a greenhouse using a day/night rhythm of 22° C./14° C. After four weeks, the plants were scored according to the scheme below.
(§5) 0%=no damage 100%=complete damage

[9] = tested on: broad bean (Vicia faba); test: Replanting behavior, crop sown in treated soil; conditions: scored after four weeks
Procedure: as §4, §5

[10] = tested on: sugar beet; test: Replanting behavior, crop sown in treated soil; conditions: scored after four weeks
Procedure: as §4, §5

[11] = 15 g of ai/ha (acid equivalent for salt)
[12] = 30 g of ai/ha (acid equivalent for salt)
[13] = 0.1 g of ai/ha worked into the soil
[14] = 0.5 g of ai/ha worked into the soil
[15] = 1.9 g of ai/ha worked into the soil
[16] = 7.5 g of ai/ha worked into the soil
[17] = 30 g of ai/ha worked into the soil, 0%=no damage, 100%=complete damage

For `COc1nc(C)nc(NC(=O)NS(=O)(=O)c2ccccc2I)n1.[K]` [Compound I-3, 2-Iodo-N-[(4-methoxy-6-methyl-1,3,5-triazin-2-yl)carbamoyl]benzenesulfonamide potassium salt], which “Panicum minor control in %” value [1] is on record?
Its value is 30%.

And the “Solanum nigrum control in %” value [2]?
Its value is 84%.

What about the “herbicidal activity, post-emergence (visual scoring)” value (shortened to “herbicidal activity, post-emergence”) [3] of the same molecule?
Its value is “very good herbicidal activity”.

And the “herbicidal activity, pre-emergence (visual scoring)” value (“herbicidal activity, pre-emergence” for short) [4]?
Its value is “very good herbicidal activity”.

What does the source list for `COc1nc(C)nc(NC(=O)NS(=O)(=O)c2ccccc2I)n1.[Na]` [Compound I-2, 2-Iodo-N-[(4-methoxy-6-methyl-1,3,5-triazin-2-yl)carbamoyl]benzenesulfonamide sodium salt]?
Pennisetum glauca Control in % [5]: 85%; Fagopyran repens Control in % [6, 11]: 30%; Fagopyran repens Control in % [6, 12]: 45%; Chenopodium album Control in % [7, 11]: 93%; Chenopodium album Control in % [7, 12]: 100%; herbicidal activity, post-emergence (visual scoring) [3]: very good herbicidal activity; Brassica napus damage in % [8, 13]: 0%; Brassica napus damage in % [8, 14]: 1%; Brassica napus damage in % [8, 15]: 29%; Brassica napus damage in % [8, 16]: 83%; Brassica napus damage in % [8, 17]: 94%; Vicia faba damage in % [9, 13]: 2.5%; Vicia faba damage in % [9, 14]: 2.5%; Vicia faba damage in % [9, 15]: 2.5%; Vicia faba damage in % [9, 16]: 49%; Vicia faba damage in % [9, 17]: 93%; Sugar beet damage in % [10, 13]: 0%; Sugar beet damage in % [10, 14]: 1%; Sugar beet damage in % [10, 15]: 61%; Sugar beet damage in % [10, 16]: 85%; Sugar beet damage in % [10, 17]: 92%; herbicidal activity, pre-emergence (visual scoring) [4]: very good herbicidal activity

How did the “herbicidal activity, post-emergence” value [3] turn out when “2-Iodo-N-[(4-methoxy-6-methyl-1,3,5-triazin-2-yl)carbamoyl]benzenesulfonamide tetrabutylammonium salt [Compound I-18]” was run?
Its value is “very good herbicidal activity”.

What about the “herbicidal activity, pre-emergence” value [4] of the same molecule?
Its value is “very good herbicidal activity”.

Which “Panicum minor control in %” value [1] does the source give for `COc1nc(C)nc(NC(=O)NS(=O)(=O)c2ccccc2I)n1.[Mg]` [Compound I-4, 2-Iodo-N-[(4-methoxy-6-methyl-1,3,5-triazin-2-yl)carbamoyl]benzenesulfonamide magnesium salt] here?
The value was 48%.

What about the “Solanum nigrum control in %” value [2] of the same molecule?
The value was 85%.

And the “herbicidal activity, post-emergence” value [3]?
The value was “very good herbicidal activity”.

What about the “herbicidal activity, pre-emergence” value [4] of the same molecule?
Its value is “very good herbicidal activity”.

`COc1nc(C)nc(NC(=O)NS(=O)(=O)c2ccccc2I)n1` [2-Iodo-N-[(4-methoxy-6-methyl-1,3,5-triazin-2-yl)carbamoyl]benzenesulfonamide, reference compound] was tested. Which “Pennisetum glauca Control in %” value [5] did it give?
The value was 80%.

And the “Fagopyran repens Control in %” value [6, 11]?
Its value is 25%.

And the “Fagopyran repens Control in %” value [6, 12]?
The value was 40%.

What about the “Chenopodium album Control in %” value [7, 11] of the same molecule?
Its value is 90%.

And the “Chenopodium album Control in %” value [7, 12]?
The value was 98%.

What about the “Panicum minor control in %” value [1] of the same molecule?
The value was 0%.

What about the “Solanum nigrum control in %” value [2] of the same molecule?
Its value is 70%.

For `COc1nc(C)nc(NC(=O)NS(=O)(=O)c2ccccc2I)n1.NCCO` [Compound I-19, 2-Iodo-N-[(4-methoxy-6-methyl-1,3,5-triazin-2-yl)carbamoyl]benzenesulfonamide-(2-hydroxyeth-1-yl)ammonium salt], which “herbicidal activity, post-emergence” value [3] is on record?
Its value is “very good herbicidal activity”.

And the “herbicidal activity, pre-emergence” value [4]?
The value was “very good herbicidal activity”.

For `COc1nc(C)nc(NC(=O)NS(=O)(=O)c2ccccc2I)n1.[Li]` [Compound I-1, 2-Iodo-N-[(4-methoxy-6-methyl-1,3,5-triazin-2-yl)carbamoyl]benzenesulfonamide lithium salt], which “herbicidal activity, post-emergence” value [3] is on record?
The value was “very good herbicidal activity”.

What about the “herbicidal activity, pre-emergence” value [4] of the same molecule?
Its value is “very good herbicidal activity”.

How did the “herbicidal activity, post-emergence” value [3] turn out when “2-Iodo-N-[(4-methoxy-6-methyl-1,3,5-triazin-2-yl)carbamoyl]benzenesulfonamide tetraethylammonium salt [Compound I-12]” was run?
Its value is “very good herbicidal activity”.

What about the “herbicidal activity, pre-emergence” value [4] of the same molecule?
Its value is “very good herbicidal activity”.
